# Measurements reported in patent US20240245711A1, “A 19-NOR C3,3-DISUBSTITUTED C21-N-PYRAZOLYL STEROID FOR THE TREATMENT OF MAJOR DEPRESSIVE DISORDER” (Sage Therapeutics, Inc., priority 2021, published 2024).
# Several values for one entry are separate records, joined by “and”; a condition that tells them apart may be missing. Identical values can stand only once.
# Test system: adult subjects with Major Depressive Disorder
# Assay: Phase 3 open-label 1-year study: HAM-D total score, response and remission
# Assay type: in vivo, human
# Conditions: for HAM-D Total Score, Mean Percent Change from Period-Specific Baseline / HAM-D Total Score, Mean Change from Period-Specific Baseline: Low Dose Cohort (FAS); for HAM-D Remission / HAM-D Response / HAM-D total score, Mean % CFB ± SD / HAM-D total score, Mean CFB ± SD: Study Period 1, safety set, 30 mg Cohort (N = 725)
# Text: Secondary Objective: To assess the need for re-treatment with Compound (1) following initial treatment in adults with MDD currently experiencing an MDE over a 1-year period, and to assess the response of initial treatment and re-treatment(s) with Compound (1) following an initial 2-week treatment period in adults with MDD currently experiencing an MDE over a 1-year period.
# Secondary Endpoints: The need for re-treatment with Compound (1) as assessed by: time to first re-treatment (Kaplan-Meier curves), number of subjects achieving the requirements for re-treatment, number of re-treatment cycles for each subject, the response of initial treatment and/or re-treatment as assessed by: change from baseline in the 17-item Hamilton Rating Scale for Depression (HAM-D) total score at the end of each 14-day treatment (initial and/or re-treatment) period, HAM-D response at the end of each 14-day treatment (initial and/or re-treatment) period, defined as a ≥50% reduction in HAM-D score from baseline, HAM-D remission at the end of each 14-day treatment (initial and/or re-treatment) period, defined as HAM-D total score≤7, Clinical Global Impression-Improvement (CGI-I) response, defined as “much improved” or “very much improved”, at the end of each 14-day treatment (initial and/or re-treatment) period, change from baseline in Clinical Global Impression-Severity (CGI-S) score at the end of each 14-day treatment (initial and/or re-treatment) period.
# Study Population: Subjects were 18-75 years old, diagnosed with major depressive disorder (MDD) with a MADRS total score of ≥28 and a HAM-D total score of ≥20 at Screening and Day 1 (prior to dosing).
# Treatment Groups: The 30 mg and 50 mg dose groups were separated by time of enrollment. The study is comprised of two cohorts: one with Compound (1) 30 mg as a starting dose (30 mg Cohort: n=725), an initial cohort with Compound (1) 50 mg as a starting dose (50 mg Cohort: n=199). A patient receiving Compound (1) 30 mg could be dose reduced to 20 mg and patients receiving Compound (1) 50 mg could be dose reduced to 40 mg (based on tolerability). In all cohorts, Compound (1) is self-administered by patients as an oral therapy once nightly with food for 14 days.
# Eligible subjects were given Compound (1)—to be taken at home in the evening with meal.
# The cohorts pertaining to the different doses that the subjects received were defined as following: • 50 mg cohort: This cohort includes subjects who have initiated treatment with 50 mg and received re-treatment with 50 mg only. • 30 mg cohort: This cohort includes subjects who have initiated treatment with 30 mg regardless of the dose they have received in re-treatments. • Low dose cohort: This cohort includes subjects who have initiated treatment with 30 mg and received re-treatment with 30 mg only. • Dose switch cohort: This cohort includes subjects who have received initial treatment with 30 mg and at least one subsequent re-treatment with 50 mg. • Study Period X: starts on the date of the first dose of Compound (1) in cycle X and goes up to one day prior to the first dose of the next cycle. In some embodiments, X is any number from 1 to 5. • Treatment Period X: starts on the date of the first dose of Compound (1) in cycle X and goes up to one day after the last dose in cycle X. In some embodiments, X is any number from 1 to 5. • Treatment Cycle X: starts on the date of the first dose of Compound (1) in cycle X and goes up to 14 days after the last dose in cycle X. The treatment cycles may be denoted as C1-C5. • Observation period X: starts the day after Treatment Cycle X ends and goes up to one day prior to the start of next treatment cycle. In some embodiments, X is any number from 1 to 5.
# Analysis Sets: The safety set was defined as all subjects who were administered study drug. The period-specific safety set includes subjects in the safety set who were administered study drug in the corresponding treatment cycle. […]
# [1] = subjects dosed in Cycle 4 (43), Cycle 1, Day 28
# [2] = subjects dosed in Cycle 4 (43), Cycle 2, Day 15
# [3] = subjects dosed in Cycle 4 (43), Cycle 2, Day 28
# [4] = subjects dosed in Cycle 4 (43), Cycle 3, Day 15
# [5] = subjects dosed in Cycle 4 (43), Cycle 3, Day 28
# [6] = subjects dosed in Cycle 4 (43), Cycle 4, Day 15
# [7] = subjects dosed in Cycle 4 (43), Cycle 4, Day 28
# [8] = subjects dosed in Cycle 5 (20), Cycle 1, Day 15
# [9] = subjects dosed in Cycle 5 (20), Cycle 1, Day 28
# [10] = subjects dosed in Cycle 5 (20), Cycle 2, Day 15
# [11] = subjects dosed in Cycle 5 (20), Cycle 2, Day 28
# [12] = subjects dosed in Cycle 5 (20), Cycle 3, Day 15
# [13] = subjects dosed in Cycle 5 (20), Cycle 3, Day 28
# [14] = subjects dosed in Cycle 5 (20), Cycle 4, Day 15
# [15] = subjects dosed in Cycle 5 (20), Cycle 4, Day 28
# [16] = subjects dosed in Cycle 5 (20), Cycle 5, Day 28
smiles,measurement,setting,value
"C[C@@]1(O)CC[C@H]2[C@H](CC[C@@H]3[C@@H]2CC[C@]2(C)[C@@H](C(=O)Cn4cc(C#N)cn4)CC[C@@H]32)C1 [Compound (1), 1-(2-((3R,5R,8R,9R,10S,13S,14S,17S)-3-hydroxy-3,13-dimethylhexadecahydro-1H-cyclopenta[a]phenanthren-17-yl)-2-oxoethyl)-1H-pyrazole-4-carbonitrile]","HAM-D Total Score, Mean Percent Change from Period-Specific Baseline","subjects dosed in Cycle 4 (43), Cycle 1, Day 15",−68.2
same,"HAM-D Total Score, Mean Change from Period-Specific Baseline",[1],−13.0
same,"HAM-D Total Score, Mean Percent Change from Period-Specific Baseline",[1],−52.0
same,"HAM-D Total Score, Mean Change from Period-Specific Baseline",[2],−12.1
same,"HAM-D Total Score, Mean Percent Change from Period-Specific Baseline",[2],−49.6
same,"HAM-D Total Score, Mean Change from Period-Specific Baseline",[3],−10.4
same,"HAM-D Total Score, Mean Percent Change from Period-Specific Baseline",[3],−42.4
same,"HAM-D Total Score, Mean Change from Period-Specific Baseline",[4],−12.7
same,"HAM-D Total Score, Mean Percent Change from Period-Specific Baseline",[4],−54.1
same,"HAM-D Total Score, Mean Change from Period-Specific Baseline",[5],−11.1
same,"HAM-D Total Score, Mean Percent Change from Period-Specific Baseline",[5],−46.9
same,"HAM-D Total Score, Mean Change from Period-Specific Baseline",[6],−11.7
same,"HAM-D Total Score, Mean Percent Change from Period-Specific Baseline",[6],−50.0
same,"HAM-D Total Score, Mean Change from Period-Specific Baseline",[7],−9.9
same,"HAM-D Total Score, Mean Percent Change from Period-Specific Baseline",[7],−41.9
same,"HAM-D Total Score, Mean Change from Period-Specific Baseline",[8],−16.5
same,"HAM-D Total Score, Mean Percent Change from Period-Specific Baseline",[8],−66.9
same,"HAM-D Total Score, Mean Change from Period-Specific Baseline",[9],−11.3
same,"HAM-D Total Score, Mean Percent Change from Period-Specific Baseline",[9],−45.7
same,"HAM-D Total Score, Mean Change from Period-Specific Baseline",[10],−11.1
same,"HAM-D Total Score, Mean Percent Change from Period-Specific Baseline",[10],−45.1
same,"HAM-D Total Score, Mean Change from Period-Specific Baseline",[11],−9.2
same,"HAM-D Total Score, Mean Percent Change from Period-Specific Baseline",[11],−37.8
same,"HAM-D Total Score, Mean Change from Period-Specific Baseline",[12],−11.9
same,"HAM-D Total Score, Mean Percent Change from Period-Specific Baseline",[12],−51.5
same,"HAM-D Total Score, Mean Change from Period-Specific Baseline",[13],−10.7
same,"HAM-D Total Score, Mean Percent Change from Period-Specific Baseline",[13],−46.1
same,"HAM-D Total Score, Mean Change from Period-Specific Baseline",[14],−11.6
same,"HAM-D Total Score, Mean Percent Change from Period-Specific Baseline",[14],−48.9
same,"HAM-D Total Score, Mean Change from Period-Specific Baseline",[15],−7.7
same,"HAM-D Total Score, Mean Percent Change from Period-Specific Baseline",[15],−32.6
same,"HAM-D Total Score, Mean Change from Period-Specific Baseline","subjects dosed in Cycle 5 (20), Cycle 5, Day 15","17, −11.6/—"
same,"HAM-D Total Score, Mean Change from Period-Specific Baseline",[16],−7.1
same,"HAM-D Total Score, Mean Percent Change from Period-Specific Baseline",[16],−30.6
same,"Withdrawn in Treatment Cycle 1: Exit for non-response, n (%)",Low Dose Cohort (n = 645),146 (22.6%)
same,HAM-D Remission,Day 8,(17.8%)
same,HAM-D Response,Day 8,295/704 (41.9%)
same,"HAM-D total score, Mean % CFB ± SD",Day 8,−42.9 ± 25.68%
same,"HAM-D total score, Mean CFB ± SD",Day 8,−10.9 ± 6.75
same,"HAM-D total score, Mean % CFB ± SD",Day 15,−60.0 ± 25.61%
same,"HAM-D total score, Mean CFB ± SD",Day 15,−15.2±7.1 and −15.2 ± 7.07
same,HAM-D Remission,Day 28,(32.6%)
same,HAM-D Response,Day 28,372/681 (54.6%)
same,"HAM-D total score, Mean % CFB ± SD",Day 28,−51.9 ± 29.96%
same,"HAM-D total score, Mean CFB ± SD",Day 28,−13.3 ± 8.07
same,HAM-D Remission,Day 70,(30.0%)
same,HAM-D Response,Day 70,193/384 (50.3%)
same,"HAM-D total score, Mean % CFB ± SD",Day 70,−46.6 ± 34.25%
same,"HAM-D total score, Mean CFB ± SD",Day 70,−12.1 ± 9.12
same,HAM-D Remission,Day 126,(47.3%)
